Test results taken from US20250302815A1, “PROTEIN TYROSINE PHOSPHATASE TARGETING LIGANDS” (CALICO LIFE SCIENCES LLC, priority 2021, published 2025).

Key:
[1] = biological target: T1, PTPN2 (B16F10.4 cells) (Mus musculus, UniProt Q06180); experiment: HiBiT Degradation B16F10.4 PTPN2; assay type: cell-based; details: 24.0 hours
T1 construct: HiBiT; host or cells: B16F10.4
T1 sequence (Q06180 1-406): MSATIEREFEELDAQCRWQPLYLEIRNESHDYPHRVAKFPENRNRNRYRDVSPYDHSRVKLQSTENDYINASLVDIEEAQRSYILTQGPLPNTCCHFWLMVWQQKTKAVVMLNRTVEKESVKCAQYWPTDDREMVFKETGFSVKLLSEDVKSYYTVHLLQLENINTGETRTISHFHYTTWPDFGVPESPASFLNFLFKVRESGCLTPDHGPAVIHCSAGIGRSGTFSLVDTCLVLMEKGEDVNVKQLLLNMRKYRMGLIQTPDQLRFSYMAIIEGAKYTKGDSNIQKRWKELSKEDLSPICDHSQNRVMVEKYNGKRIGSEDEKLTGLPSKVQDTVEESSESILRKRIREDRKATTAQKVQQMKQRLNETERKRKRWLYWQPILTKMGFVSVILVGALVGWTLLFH

[2] = biological target: T2, PTPN2 (HiBIT-PTPN2 in 293T.109 cells) (Homo sapiens, UniProt P17706); experiment: HiBiT Degradation 293T.109 PTPN2 (Nano-Glo HiBiT Lytic Assay); assay type: cell-based; details: 24.0 hours
T2 construct: expressed in transfected cells; host or cells: 293T.109 (293T WT from ATCC)
T2 sequence (P17706 1-415): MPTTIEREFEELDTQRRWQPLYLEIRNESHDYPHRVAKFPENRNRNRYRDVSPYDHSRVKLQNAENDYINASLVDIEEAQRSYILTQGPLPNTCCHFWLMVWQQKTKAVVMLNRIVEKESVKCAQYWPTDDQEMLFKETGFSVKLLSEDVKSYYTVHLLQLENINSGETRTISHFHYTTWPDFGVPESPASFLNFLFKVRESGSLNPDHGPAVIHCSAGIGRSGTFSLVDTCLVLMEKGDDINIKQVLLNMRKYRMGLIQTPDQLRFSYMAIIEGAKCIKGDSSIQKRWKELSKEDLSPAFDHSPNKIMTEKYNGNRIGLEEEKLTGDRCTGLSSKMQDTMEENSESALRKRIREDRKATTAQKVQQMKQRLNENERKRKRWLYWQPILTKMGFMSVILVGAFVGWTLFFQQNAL
Text: Dulbecco's modified Eagle medium (DMEM) without phenol red and fetal bovine serum (FBS) were purchased from Gibco (Grand Island, NY, USA). Nano-Glo® HiBIT Lytic Assay System was purchased from Promega (Madison, WI, USA). 293T.109 (HiBIT-PTPN2) cell line was generated by ectopically expressing PTPN2 with N-terminal HiBIT fusion tag in 293T WT cell line purchased from ATCC (Manassas, VA, USA). Cell culture flasks and 384-well microplates were acquired from VWR (Radnor, PA, USA).
PTPN2 degradation was determined based on quantification of luminescent signal using Nano-Glo® HiBIT Lytic Assay kit. Test compounds were added to the 384-well plate from a top concentration of 10 μM with 11 points, half log titration in duplicates. 293T.109 cells were added into 384-well plates at a cell density of 5000 cells per well. The plates were kept at 37° C. with 5% CO2 for 24 hours. The cells treated in the absence of the test compound were the negative control and the cells without Nano-Glo® HiBIT Lytic reagent were the positive control. After 24-hour incubation, Nano-Glo® HiBiT Lytic Assay reagents were added to the cells. Luminescence was acquired on EnVision™ Multilabel Reader (PerkinElmer, Santa Clara, CA, USA).

SMILES | DC50 [1] [nM] | DC50 [2] [nM]
CC1(C)C[C@@H](Nc2cccc(-c3sc(C(=O)O)c(OCC(=O)O)c3Cl)c2)CCN1S(=O)(=O)Cc1cccc(NC(=O)COc2cccc3c2CN(C2CCC(=O)NC2=O)C3=O)c1 (stereo partly drawn) [Example 29, 3-(carboxymethoxy)-4-chloro-5-[3-[[(4S)-1-[[3-[[2-[2-(2,6-dioxo-3-piperidyl)-1-oxo-isoindolin-4-yl]oxyacetyl]amino]phenyl]methylsulfonyl]-2,2-dimethyl-4-piperidyl]amino]phenyl]thiophene-2-carboxylic acid] | 200 to 1000 | 200 to 1000
O=C(O)COc1c(C(=O)O)sc(-c2cccc(NC3CCN(S(=O)(=O)Cc4cccc(NC(=O)CCCCCCNC(=O)CNc5cccc6c5C(=O)N(C5CCC(=O)NC5=O)C6)c4)CC3)c2)c1Cl (centres unmarked) [Example 30, 3-(carboxymethoxy)-4-chloro-5-[3-[[1-[[3-[7-[[2-[[2-(2,6-dioxo-3-piperidyl)-3-oxo-isoindolin-4-yl]amino]acetyl]amino]heptanoylamino]phenyl]methylsulfonyl]-4-piperidyl]amino]phenyl]thiophene-2-carboxylic acid] | ≥ 1000 | 200 to 1000
CC1(C)C[C@@H](Nc2cccc(-c3sc(C(=O)O)c(OCC(=O)O)c3Cl)c2)CCN1S(=O)(=O)Cc1cccc(NC(=O)C2CCN(C(=O)CNc3cccc4c3C(=O)N(C3CCC(=O)NC3=O)C4=O)CC2)c1 (stereo partly drawn) [Example 32, 3-(carboxymethoxy)-4-chloro-5-[3-[[(4S)-1-[[3-[[1-[2-[[2-(2,6-dioxo-3-piperidyl)-1,3-dioxo-isoindolin-4-yl]amino]acetyl]piperidine-4-carbonyl]amino]phenyl]methylsulfonyl]-2,2-dimethyl-4-piperidyl]amino]phenyl]thiophene-2-carboxylic acid] | 200 to 1000 | 50 to 200
O=C(O)COc1c(C(=O)O)sc(-c2cccc(NC3CCN(S(=O)(=O)Cc4cccc(NC(=O)CCCCCN5CCC(Nc6cccc7c6CN(C6CCC(=O)NC6=O)C7=O)CC5)c4)CC3)c2)c1Cl (centres unmarked) [Example 33, 3-(carboxymethoxy)-4-chloro-5-[3-[[1-[[3-[6-[4-[[2-(2,6-dioxo-3-piperidyl)-1-oxo-isoindolin-4-yl]amino]-1-piperidyl]hexanoylamino]phenyl]methylsulfonyl]-4-piperidyl]amino]phenyl]thiophene-2-carboxylic acid] | ≥ 1000 | 200 to 1000
CC1(C)C[C@@H](Nc2cccc(-c3sc(C(=O)O)c(OCC(=O)O)c3Cl)c2)CCN1S(=O)(=O)Cc1cccc(NC(=O)CNc2ccc3c(c2)C(=O)N(C2CCC(=O)NC2=O)C3=O)c1 (stereo partly drawn) [Example 34, 3-(carboxymethoxy)-4-chloro-5-[3-[[(4S)-1-[[3-[[2-[[2-(2,6-dioxo-3-piperidyl)-1,3-dioxo-isoindolin-5-yl]amino]acetyl]amino]phenyl]methylsulfonyl]-2,2-dimethyl-4-piperidyl]amino]phenyl]thiophene-2-carboxylic acid] | 200 to 1000 | 200 to 1000
CC1(C)C[C@@H](Nc2cccc(-c3sc(C(=O)O)c(OCC(=O)O)c3Cl)c2)CCN1S(=O)(=O)Cc1cccc(NC(=O)CCOCCOCCOCCCc2cccc3c2C(=O)N(C2CCC(=O)NC2=O)C3=O)c1 (stereo partly drawn) [Example 35, 3-(carboxymethoxy)-4-chloro-5-[3-[[(4S)-1-[[3-[3-[2-[2-[3-[2-(2,6-dioxo-3-piperidyl)-1,3-dioxo-isoindolin-4-yl]propoxy]ethoxy]ethoxy]propanoylamino]phenyl]methylsulfonyl]-2,2-dimethyl-4-piperidyl]amino]phenyl]thiophene-2-carboxylic acid] | 200 to 1000 | 200 to 1000
O=C(O)COc1c(C(=O)O)sc(-c2cccc(NC3CCN(S(=O)(=O)Cc4cccc(NC(=O)CNc5ccc6c(c5)CN(C5CCC(=O)NC5=O)C6=O)c4)CC3)c2)c1Cl (centres unmarked) [Example 36, 3-(carboxymethoxy)-4-chloro-5-[3-[[1-[[3-[[2-[[2-(2,6-dioxo-3-piperidyl)-1-oxo-isoindolin-5-yl]amino]acetyl]amino]phenyl]methylsulfonyl]-4-piperidyl]amino]phenyl]thiophene-2-carboxylic acid] | 200 to 1000 | 200 to 1000
CC1(C)C[C@@H](Nc2cccc(-c3sc(C(=O)O)c(OCC(=O)O)c3Cl)c2)CCN1S(=O)(=O)Cc1cccc(NC(=O)CNc2ccc3c(c2)CN(C2CCC(=O)NC2=O)C3=O)c1 (stereo partly drawn) [Example 37, 3-(carboxymethoxy)-4-chloro-5-[3-[[(4S)-1-[[3-[[2-[[2-(2,6-dioxo-3-piperidyl)-1-oxo-isoindolin-5-yl]amino]acetyl]amino]phenyl]methylsulfonyl]-2,2-dimethyl-4-piperidyl]amino]phenyl]thiophene-2-carboxylic acid] | 200 to 1000 | 200 to 1000
O=C(O)COc1c(C(=O)O)sc(-c2cccc(NC3CCN(S(=O)(=O)Cc4cccc(NC(=O)CCn5cc(CNc6cccc7c6CN(C6CCC(=O)NC6=O)C7=O)cn5)c4)CC3)c2)c1Cl (centres unmarked) [Example 38, 3-(carboxymethoxy)-4-chloro-5-[3-[[1-[[3-[3-[4-[[[2-(2,6-dioxo-3-piperidyl)-1-oxo-isoindolin-4-yl]amino]methyl]pyrazol-1-yl]propanoylamino]phenyl]methylsulfonyl]-4-piperidyl]amino]phenyl]thiophene-2-carboxylic acid] | ≥ 1000 | 200 to 1000
CC(C)(c1cccc(NC(=O)CCCCCCNC(=O)CNc2ccc3c(c2)CN(C2CCC(=O)NC2=O)C3=O)c1)S(=O)(=O)N1CCC(Nc2cccc(-c3sc(C(=O)O)c(OCC(=O)O)c3Cl)c2)CC1 (centres unmarked) [Example 39, 3-(carboxymethoxy)-4-chloro-5-[3-[[1-[1-[3-[7-[[2-[[2-(2,6-dioxo-3-piperidyl)-1-oxo-isoindolin-5-yl]amino]acetyl]amino]heptanoylamino]phenyl]-1-methyl-ethyl]sulfonyl-4-piperidyl]amino]phenyl]thiophene-2-carboxylic acid] | ≥ 1000 | 200 to 1000
CC(C)(c1cccc(NC(=O)CCCCCCNC(=O)CNc2cccc3c2CN(C2CCC(=O)NC2=O)C3=O)c1)S(=O)(=O)N1CCC(Nc2cccc(-c3sc(C(=O)O)c(OCC(=O)O)c3Cl)c2)CC1 (centres unmarked) [Example 40, 3-(carboxymethoxy)-4-chloro-5-[3-[[1-[1-[3-[7-[[2-[[2-(2,6-dioxo-3-piperidyl)-1-oxo-isoindolin-4-yl]amino]acetyl]amino]heptanoylamino]phenyl]-1-methyl-ethyl]sulfonyl-4-piperidyl]amino]phenyl]thiophene-2-carboxylic acid] | ≥ 1000 | 200 to 1000
CC1(C)C[C@@H](Nc2cccc(-c3sc(C(=O)O)c(OCC(=O)O)c3Cl)c2)CCN1S(=O)(=O)Cc1cccc(NC(=O)C2CCN(C(=O)CNc3ccc4c(c3)CN(C3CCC(=O)NC3=O)C4=O)CC2)c1 (stereo partly drawn) [Example 41, 3-(carboxymethoxy)-4-chloro-5-(3-(((4S)-1-((3-(1-((2-(2,6-dioxopiperidin-3-yl)-1-oxoisoindolin-5-yl)glycyl)piperidine-4-carboxamido)benzyl)sulfonyl)-2,2-dimethylpiperidin-4-yl)amino)phenyl)thiophene-2-carboxylic acid] | ≥ 1000 | 50 to 200
O=C(O)COc1c(C(=O)O)sc(-c2cccc(NC3CCN(S(=O)(=O)C(c4ccccc4)c4cccc(NC(=O)CNc5ccc6c(c5)C(=O)N(C5CCC(=O)NC5=O)C6=O)c4)CC3)c2)c1Cl (centres unmarked) [Example 42, 3-(carboxymethoxy)-4-chloro-5-(3-((1-(((3-(2-((2-(2,6-dioxopiperidin-3-yl)-1,3-dioxoisoindolin-5-yl)amino)acetamido)phenyl)(phenyl)methyl)sulfonyl)piperidin-4-yl)amino)phenyl)thiophene-2-carboxylic acid] | ≥ 1000 | 200 to 1000
